Measured values reported in patent US11702546B2, “Near-infrared heptamethine dyes for generation of singlet oxygen” (California Institute of Technology, priority 2018, dated 2023).
“Also recorded” adds a separate entry of the source.

Tests used:
[1] = Irradiation experiments with singlet oxygen trap DPBF (NIR laser, absorbance readout vs dark control); assay type: physicochemical; conditions: for change in DPBF signal after irradiation: 980 nm laser, 1 W cm-2, CDCl3, 30 minutes, relative to dark control
Procedure: (§1) IR-1061 tetrafluoroborate and dry pyridine were purchased from commercial sources and used as supplied. Deuterated chloroform was purchased from commercial sources and filtered through a neutral alumina plug prior to use to neutralize and dry the solvent. Irradiations at 980 nm were performed using a 1 watt/cm^2 infrared diode laser at 980 nm coupled to a PSU-III-FDA power supply. Irradiations at 1064 nm were performed using an Nd:YAG laser at 1.8 W/cm^2. Absorbance spectra were obtained using an Agilent CARY 60 UV-Vis for spectra below 1000 nm, and a Cary 5000 UV-VIS-NIR for spectra above 1000 nm. Mass spectrometry characterization was performed via MALDI using a BRUKER MALDI/TOF Autoflex Speed and a Waters LCT Premier XE Electrospray TOF. 1H NMR spectra were obtained using a Varian 600 MHz Spectrometer.
Dye was dissolved in deuterated solvent at a concentration that would produce an absorbance near 1 at 980 nm. This was calculated using extinction coefficients determined by absorbance measurements of the dye alone. The IR-1061-acridinium irradiation in water was an exception, as the concentration was kept lower to ensure solubility. Dye solution was split into two aliquots and added to two 1 cm by 1 cm quartz cuvettes purchased from Starna. The absorption spectra were taken for both cuvettes (to ensure the pre-irradiation sample looked the same in both cases), and subsequently one cuvette was irradiated while the other was kept in the dark. A stir bar was used to ensure proper mixing during irradiation. After irradiation, the absorbance of both solutions was again evaluated. […] For the 1064 nm irradiation, the dye was dissolved at a slightly higher concentration to an absorbance of approximately 1.5 at 1064 nm and irradiated for 5 minutes. At this point significant photobleaching of the dye was observed, so additional irradiation was not performed.
The freeze-pump-thaw (FPT) experiment was carried out as follows. Dye was dissolved in deuterated chloroform and added to a FPT that apparatus. Three consecutive freeze-pump-thaw cycles were carried out to a pressure of less than […], at which point the solution was transferred under vacuum to the arm of the apparatus containing a fused 1 cm by 1 cm quartz cuvette (Starna). Irradiation and subsequent absorption measurements were carried out in the sealed cuvette.
The pyridine addition reaction was extremely sensitive to water, but gave good conversion using dry pyridine. […] Despite this inconvenience, the slightly impure dye was used as a proof of principle. For initial singlet oxygen generation experiments, the dye was dissolved in CDCl3—the solvent in which it had the highest solubility—and irradiated using a 1 Wcm^−2 980 nm laser in the presence of a singlet oxygen trap, diphenylisobenzofuran (DPBF). DPBF was selected as a trap because it is a standard in the field and because other popular detectors (such as singlet oxygen sensor green, SOSG) led to precipitation of IR-1061-pyridinium over time.

[2] = Comparative quantum yield experiments (DPBF bleaching vs phenalenone); assay type: physicochemical; conditions: chloroform; for relative quantum yield of singlet oxygen generation: 1064 nm, relative to phenalenone, corrected for photon flux; for percent decrease in DPBF signal at 415 nm: 30 seconds
Excerpt: Phenalenone, a highly efficient singlet oxygen generator with a known singlet oxygen quantum yield of 0.97 in chloroform was used to benchmark the efficiency of IR-1061-acridinium singlet oxygen generation in chloroform. A solution of phenalenone at an absorbance of 0.30 at 365 nm was generated that also contained DPBF at an absorbance of approximately 1.0. This solution was irradiated for 30 seconds using a 365 nm variable power LED (3-300 mW, Thor labs) at 30 mW/cm^2. The percent decrease in DPBF signal at 415 nm was calculated, taking into account any background from phenalenone. This was done in triplicate. A similar experiment was then run using IR-1061-acridinium. A solution containing the dye at an absorbance of 0.30 at 1064 and DPBF at an absorbance of approximately 1.0 was irradiated for 30 seconds using a 1064 nm Nd:YAG laser with a power output of 1.8 W/cm^2. The percent decrease in DPBF signal at 415 nm was then calculated, taking into account any background from IR-1061-acridinium. This was also done in triplicate.
The percent decrease attributed to phenalenone was calculated to be 0.53 and the percent decrease attributed to IR-1061-acridinium was calculated to be 0.29. To account for the difference in photon flux at these two wavelengths, the ratio of the photon flux was calculated, where the photon flux was described by the following equation: PF=I*λ/(h*c*Na). PF stands for photon flux, I is the irradiation intensity, λ is the irradiation wavelength, his Planck's constant, c is the speed of light and Na is Avogadro's number. The ratio of the photon flux was simplified to PFR=(IPhe*λPhe)/(IIR*λIr)=(0.03 W/cm^2*365 nm)/(1.8 W/cm^2*1064 nm)=0.006. Considering this difference in photon flux and phenalenone's known quantum yield of singlet oxygen generation of 0.97, this yielded a relative quantum yield of about 0.003, or 0.3%.

NIR absorbance spectrum = assay type: physicochemical; set-up: dose or concentration left out as unconfirmed; conditions: CDCl3
Procedure: as §1

[3] = Stability and solubility observations of the dye; assay type: physicochemical
[4] = in chloroform, irradiation at 365 nm; cited from earlier work
[5] = 980 nm, D2O with DMSO-D6 for solubility
[6] = 1064 nm laser, 1.8 W cm-2, CDCl3, 5 minutes

With `C(/C=C1\CCCC(/C=C/c2cc(-c3ccccc3)[s+]c(-c3ccccc3)c2)=C1[n+]1c2ccccc2cc2ccccc21)=C1C=C(c2ccccc2)SC(c2ccccc2)=C1` [IR-1061-acridinium] as the compound, how does the “change in DPBF signal after irradiation” value [1] read?
The value was “significant DPBF photobleaching was observed only after 30 minutes”.

What about the “DPBF degradation rate in water” value [1, 5] of the same compound?
Its value is “comparable to those seen in chloroform”.

What about the “photobleaching of the dye in water” value [1, 5] of the same compound?
The value was “high levels of photobleaching”.

And the “singlet oxygen generation in nonpolar solvents” value ([1]; 980 nm, deuterated nonpolar solvents such as toluene)?
The value was “no singlet oxygen generation was observed”.

What about the “DPBF degradation in polar aprotic solvents” value ([1]; 980 nm, deuterated polar aprotic solvents such as DMSO) of the same compound?
The value was “decreased DPBF degradation”.

And the “change in DPBF signal, freeze-pump-thawed sample devoid of oxygen” value ([1]; 980 nm, freeze-pump-thawed CDCl3)?
The value was “no change in DPBF signal”.

What about the “DPBF photobleaching after irradiation” value [1, 6] of the same compound?
Its value is “near complete photobleaching of DPBF; also recorded: Rapid bleaching of both the dye and DPBF signal”.

What about the “bleaching of the dye during irradiation” value [1, 6] of the same compound?
Its value is “significant bleaching of the dye”.

What about the “relative quantum yield of singlet oxygen generation” value [2] of the same compound?
The value was “about 0.003”.

What about the “relative quantum yield of singlet oxygen generation” value ([2]; approximate) of the same compound?
Its value is roughly 0.3%.

And the “percent decrease in DPBF signal at 415 nm” value ([2]; 1064 nm Nd:YAG laser at 1.8 W/cm2, absorbance 0.30 at 1064, triplicate)?
The value was 0.29.

What about the “λmax of NIR absorbance” value (NIR absorbance spectrum) of the same compound?
The value was 1078.

What about the “effect of introduction of protein (BSA)” value ([3]; BSA added) of the same compound?
Its value is “precipitation of the dye”.

Which “percent decrease in DPBF signal at 415 nm” value ([2]; 365 nm LED at 30 mW/cm2, absorbance 0.30 at 365 nm, triplicate) does the source give for `O=C1C=Cc2cccc3cccc1c23` [phenalenone, reference compound] here?
Its value is 0.53.

And the “known singlet oxygen quantum yield” value [4]?
Its value is 0.97.

What does the source list for `C(/C=C1\CCCC(/C=C/c2cc(-c3ccccc3)[s+]c(-c3ccccc3)c2)=C1[n+]1ccccc1)=C1C=C(c2ccccc2)SC(c2ccccc2)=C1` [IR-1061-pyridinium]?
change in DPBF signal after irradiation [1]: significant decrease in the DPBF signal; stability to hydration during purification ([3]; all evaluated purification conditions): too sensitive to isolate in pure form due to hydration

What does the source list for `C(/C=C1\CCCC(/C=C/c2cc(-c3ccccc3)[s+]c(-c3ccccc3)c2)=C1[n+]1c2ccccc2cc2ccccc21)=C1C=C(c2ccccc2)SC(c2ccccc2)=C1` [IR-1061-acridinium BArF]?
photosensitization capability after counterion exchange BF4- to BArF- ([1]; 980 nm, CDCl3, compared with tetrafluoroborate salt): marked decrease in photosensitization capability; also recorded: Reactivity was significantly reduced; solubility after counterion exchange BF4- to BArF- ([3]; compared with BF4- salt): increase in solubility

For `ClC1=C(/C=C/c2cc(-c3ccccc3)[s+]c(-c3ccccc3)c2)CCC/C1=C\C=C1C=C(c2ccccc2)SC(c2ccccc2)=C1` [IR-1061, reference compound], which “change in DPBF signal after irradiation” value [1] is on record?
The value was “no significant changes in DPBF signal”.
